Source: patent publication US12624018B1, “Inhibitors of RIPK2 and medical uses thereof” (Odyssey Therapeutics, Inc., priority 2022, dated 2026)

Columns and labels:
RIPK2 enzyme = target: T1, RIPK2 enzyme (Homo sapiens, UniProt O43353); experiment: RIPK2 inhibition (ADP-Glo Kinase Assay); assay type: biochemical; details: RIPK2 5 nM, ATP 150 μM, MBP substrate, read-out: RIPK2 IC50
T1 construct: purchased Carna 09-128
How it was run: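 Human RIPK2 (5 nM) preincubated with compound 30 min at room temperature in 50 mM HEPES pH 7.5, 10 mM MgCl2, 2 mM DTT, 1 mM EGTA, 0.01% Brij-35, 0.05% BSA; native swine MBP as substrate. ADP formed quantified by ADP-Glo luminescence; percent inhibition relative to DMSO and no-enzyme controls.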

[1] = test system: RIPK2 activity in vivo, as measured by plasma levels of cytokine MCP-1; experiment: In vivo inhibition of monocyte chemoattractant protein-1 (MCP-1), acute mouse MDP challenge; details: female C57BL/6 mice, plasma 2 h after MDP
Method: The compounds of the disclosure were tested for their ability to inhibit RTPK2 activity in vivo, as measured by plasma levels of cytokine MCP-1. C57BL/6 mice were dosed orally with the compounds of the disclosure one hour prior to intra-peritoneal administration of muramyldipeptide (MDP), a NOD2 agonist. Intraperitoneal (i.p.) injection of MDP in mice induces an increase in circulating levels of proinflammatory cytokines, such as MCP-1, in a RIPK2-dependent manner. This acute mouse MDP challenge represents a screening model to measure the ability of compounds to inhibit RIPK2 in vivo.
Materials: Female C57BL/6 mice (6-13 weeks of age) were purchased from the Jackson Laboratory. All mice were maintained under a 12 h light/dark cycle and had food and water ad libitum. Muramyldipeptide (MDP) was purchased from Invivogen (catalog No. tlrl-mdp; lot No. 6231-43-02). Mouse MCP-1 was measured using U-PLEX MSD kit (Meso Scale Discovery (MSD), catalog No. K15069M-2). Carboxymethyl cellulose was purchased from Sigma-Aldrich (catalog No. C5678-500 ml), Tween80 was purchased from Sigma-Aldrich (catalog No. P1754-500 ml), (Hydroxypropyl)-β-cyclodextrin (HP-β-CD) was purchased from Sigma-Aldrich (catalog No. C332607-500G), PBS was purchased from Thermo Fisher Scientific (catalog No. 14190250).
The vehicle was prepared by mixing carboxymethyl cellulose and Tween80 to achieve a final solution of 0.5% CMC or 20% HP-β-CD in water. The compounds of the disclosure were weighed out and mixed with the vehicle to yield final working suspensions. Working suspensions of the compounds were prepared once at the beginning of the study, and vortexed and sonicated prior to each dosing to ensure the material was in fine suspension.
Mice were acclimated to the facility for at least 5 days before the start of the study. On day 0, mice were weighed and assigned to groups in a balanced manner to achieve similar average weight across the groups at the start of the study. On day 0, hour −1 (1 hours before MDP injection), all mice were given a single p.o. dose with vehicle or a compound of the disclosure. At hour 0 (1 hour after dosing), mice were injected intraperitoneally (IP) with 8 mpk MDP in PBS. Two hours after MDP injection (3 hours after drug treatment), blood was collected via cardiac puncture for all mice into EDTA microtainer collection tubes. Plasma was prepared from blood and stored at −80° C.
MCP-1 levels in mouse plasma were measured using U-PLEX MSD kit according to manufacturer's instructions. A single analysis was performed for each sample. Concentrations were determined relative to a standard calibration curve, and total analyte levels in pg/mL.
The MCP-1 data in pg/mL were normalized in GraphPad Prism 9.2 using the normalize function and entering the 0% and 100% inhibition control groups for the study. 0% inhibition was defined as mean MCP-1 pg/mL in MDP vehicle group, and 100% inhibition was defined as mean MCP-1 pg/mL in the unstimulated vehicle group.

[2] = test system: TNF-alpha secretion in human whole blood; experiment: Inhibition of TNF-alpha secretion in human whole blood (IFN-gamma primed, L18-MDP stimulated); assay type: cell-based; details: Homo sapiens, 16 h, L18-MDP 100 ng/mL, read-out: Human Whole Blood TNFα IC50
[3] = single p.o. dose 3 mg/kg 1 h before i.p. MDP 8 mpk
[4] = single p.o. dose 10 mg/kg 1 h before i.p. MDP 8 mpk

T1 sequence (O43353 1-299 limits assumed): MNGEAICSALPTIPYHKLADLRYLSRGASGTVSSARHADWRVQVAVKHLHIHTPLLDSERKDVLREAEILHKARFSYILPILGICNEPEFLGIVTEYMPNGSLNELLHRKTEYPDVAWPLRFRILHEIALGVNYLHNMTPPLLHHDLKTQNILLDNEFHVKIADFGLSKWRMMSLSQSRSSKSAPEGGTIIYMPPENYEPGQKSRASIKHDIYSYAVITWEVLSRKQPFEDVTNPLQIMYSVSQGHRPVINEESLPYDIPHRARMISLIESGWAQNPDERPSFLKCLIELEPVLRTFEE

IC50 (RIPK2 enzyme) [nM]	IC50 [2] [nM]	Compound	% MCP-1 inhibition [1, 3]	% MCP-1 inhibition [1, 4] [%]
< 2.5	8	CCS(=O)(=O)c1ccc2nccc(Oc3ccc(CC(=O)Nc4cnn(C(C)(C)C)c4)cc3C)c2c1 [Compound 99, N-(1-(tert-butyl)-1H-pyrazol-4-yl)-2-(4-((6-(ethylsulfonyl)quinolin-4-yl)oxy)-3-methylphenyl)acetamide]	111%	–
< 2.5	14	Cc1cc(CC(=O)Nc2cnn(C(C)(C)C)c2)c(F)cc1Oc1ccnc2ccc(S(C)(=O)=O)cc12 [Compound 113, N-(1-(tert-butyl)-1H-pyrazol-4-yl)-2-(2-fluoro-5-methyl-4-((6-(methylsulfonyl)quinolin-4-yl)oxy)phenyl)acetamide]	–	82
< 2.5	–	Cc1cc(CC(=O)Nc2cnn(C(C)(C)C)c2)cc(C)c1Oc1ccnc2cc(F)c(C(N)=O)cc12 [Compound 581, 4-(4-(2-((1-(tert-butyl)-1H-pyrazol-4-yl)amino)-2-oxoethyl)-2,6-dimethylphenoxy)-7-fluoroquinoline-6-carboxamide]	75%	–
< 2.5	6	Cc1c(Oc2ccnc3ccc(S(C)(=O)=O)cc23)ccc(CC(=O)Nc2cnn(C(C)(C)C)c2)c1F [Compound 91, N-(1-(tert-butyl)-1H-pyrazol-4-yl)-2-(2-fluoro-3-methyl-4-((6-(methylsulfonyl)quinolin-4-yl)oxy)phenyl)acetamide]	99%	–
< 2.5	3	Cc1cc(CC(=O)Nc2cnn(C(C)(C)C)c2)ccc1Oc1ccnc2ccc(OC3CCNCC3)cc12 [Compound 83, N-(1-(tert-butyl)-1H-pyrazol-4-yl)-2-(3-methyl-4-((6-(piperidin-4-yloxy)quinolin-4-yl)oxy)phenyl) acetamide]	no effect	–
< 2.5	7	CNC(=O)c1ccc2nccc(Oc3cc(F)c(CC(=O)Nc4cnn(C(C)(C)C)c4)cc3C)c2c1 [Compound 360, 4-(4-(2-((1-(tert-butyl)-1H-pyrazol-4-yl)amino)-2-oxoethyl)-5-fluoro-2-methylphenoxy)-N-methylquinoline-6-carboxamide]	–	93
< 2.5	4	Cc1cc(CC(=O)Nc2cnn(C(C)(C)C)c2)c(F)cc1Oc1ccnc2ccc(C(N)=O)cc12 [Compound 359, 4-(4-(2-((1-(tert-butyl)-1H-pyrazol-4-yl)amino)-2-oxoethyl)-5-fluoro-2-methyl-phenoxy) quinoline-6-carboxamide]	–	88
< 2.5	5	CC(C)(C)n1cc(NC(=O)Cc2ccc(Oc3ccnc4ccc(S(C)(=O)=O)cc34)cc2F)cn1 [Compound 38, N-(1-(tert-butyl)-1H-pyrazol-4-yl)-2-(2-fluoro-4-((6-(methylsulfonyl)quinolin-4-yl)oxy)phenyl)acetamide]	–	99
< 2.5	9	Cc1cc(CC(=O)Nc2cnn(C(C)(C)C)c2)ccc1Oc1ccnc2ccc(S(C)(=O)=O)cc12 [Compound 86, N-(1-(tert-butyl)-1H-pyrazol-4-yl)-2-(3-methyl-4-((6-(methylsulfonyl)quinolin-4-yl)oxy)phenyl)acetamide]	101%	–
